The target in data set [1] is T1, P-gp (Homo sapiens, UniProt P08183). Put plainly: Rhodamine 123 efflux assay, HeL023 cells. On the set-up: nearly all (100±1%) the cells expressing high level of functional P-gp; endogenous in cells; host or cells: HeL023 human erythroleukemia cells. The data set is classed as cell-based. Conditions: for inhibition of P-gp activity (in words): Rh123 efflux; for % of Rh123 negative cells: antagonist 10 μM, cells expressing P-gp activity. The protocol:
(§1) 5×10^5 cells from each subline were loaded with 50 ng/ml of rhodamine 123 for 30 minutes at 37° C. in medium. The cells were washed and resuspended in dye-staining agent free medium for 3 hours at 37° C. to allow rhodamine 123 efflux. The cells were then washed twice and the fluorescence of intracellular rhodamine 123 were analysed with Flow cytometer (residual fluorescence FRES). The fluorescence was compared with loaded cells maintained at 4° C. to prevent drug export (maximal fluorescence FMAX). […] Cells from each subline that were not being exposed to rhodamine 123 were used as negative controls.
(§2) Rhodamine 123 (Rh 123) retention, a P-gp functional assay, was studied in all cell lines. This assay was performed by incubating cells with Rh 123 and determining Rh 123 accumulation by measuring its fluorescence. The maximum load of Rh 123 (FMAX) was quantified at the end of treatment harvesting the cells and storing them at 4° C. to prevent any active Rh123 efflux. The P-gp drug efflux was allowed incubating Rh 123-loaded cells in fresh new medium Rh 123-free for 3 hours at 37° C. After this incubation, residual fluorescence (FRES) was measured and compared to FMAx.

For another data set, the system named is A375 melanoma cells. Put plainly: Colony formation assay. Conditions: for colony formation: 7 days. In kind it is cell-based, human. The protocol:
FIG. 2 illustrates colony formation assay of A375 cells. Cells were treated with different drugs and colonies were counted after 7 days. The values represent the mean±SEM of four independent experiments. D=DMSO (control); T=paclitaxel, 0.75 ng/ml; M=MRE 3008F20, 10 μM; C═CI-IB-MECA, 10 μM; TM=paclitaxel plus MRE 3008F20; TC=paclitaxel plus CI-IB-MECA treated cells. *P<0.01 TM versus T. Analysis was by ANOVA followed by Dunnett's test.;
Control plates received the same volume of DMSO alone. After 7 days of growth at 37° C. in humidified atmosphere containing 5% CO2, the cells were fixed with absolute methanol for 5′ and stained with 1/10 Giemsa/phosphate-buffered saline (PBS) staining solution for 10 minutes. Staining solution was removed and colonies of greater than 30 cells were scored as survivors. For each treatment, six individual wells were scored.

In data set [2] the target is T1, P-gp. Put plainly: Rhodamine 123 efflux assay, A375 cells. The data set is classed as cell-based. On the set-up: endogenous in cells. The protocol: as §1, §2
The subject of the next data set is A375 cells. Put plainly: Metabolic (MEK, ERK, p38MAPK) inhibitors on G2/M arrest and apoptosis, flow cytometry. In kind it is cell-based, human. In general terms: Flow cytometry measures light scatter and fluorescence of single cells or particles in a stream.
Data set [3] has as its system human colon carcinoma HT29 cell line. Put plainly: MTT growth inhibitory assay, HT29. In kind it is cell-based. Conditions: for IC50: Homo sapiens, HT-29, HT29 cells, read-out: IC50 of anti-neoplastic agent used jointly with A3 antagonist; for HT29 more refractory than the A375 cell line: ratio of IC50 HT29 vs A375. The text has this:
(§3) The cells are sub-cultured twice a week.
Background: Tetrazolium dyes change colour on reduction, which living cells bring about.

Data set [4] deals with human lung carcinoma SKMES cell line. Put plainly: MTT growth inhibitory assay, SKMES. In kind it is cell-based. As to conditions: SKMES cells, read-out: IC50 of anti-neoplastic agent used jointly with A3 antagonist.
Text: as §3

The term IC50 denotes the concentration that inhibits the measured activity by half.

Structures are written as SMILES. In brackets after ≈: the same amount, converted by molar mass. Entries after “also recorded” stand apart in the source; their conditions may differ. Where a name gives a salt, the structure may show the parent alone. Read-outs that look alike come from different tables or passages of the source.

T1 sequence (P08183 whole entry): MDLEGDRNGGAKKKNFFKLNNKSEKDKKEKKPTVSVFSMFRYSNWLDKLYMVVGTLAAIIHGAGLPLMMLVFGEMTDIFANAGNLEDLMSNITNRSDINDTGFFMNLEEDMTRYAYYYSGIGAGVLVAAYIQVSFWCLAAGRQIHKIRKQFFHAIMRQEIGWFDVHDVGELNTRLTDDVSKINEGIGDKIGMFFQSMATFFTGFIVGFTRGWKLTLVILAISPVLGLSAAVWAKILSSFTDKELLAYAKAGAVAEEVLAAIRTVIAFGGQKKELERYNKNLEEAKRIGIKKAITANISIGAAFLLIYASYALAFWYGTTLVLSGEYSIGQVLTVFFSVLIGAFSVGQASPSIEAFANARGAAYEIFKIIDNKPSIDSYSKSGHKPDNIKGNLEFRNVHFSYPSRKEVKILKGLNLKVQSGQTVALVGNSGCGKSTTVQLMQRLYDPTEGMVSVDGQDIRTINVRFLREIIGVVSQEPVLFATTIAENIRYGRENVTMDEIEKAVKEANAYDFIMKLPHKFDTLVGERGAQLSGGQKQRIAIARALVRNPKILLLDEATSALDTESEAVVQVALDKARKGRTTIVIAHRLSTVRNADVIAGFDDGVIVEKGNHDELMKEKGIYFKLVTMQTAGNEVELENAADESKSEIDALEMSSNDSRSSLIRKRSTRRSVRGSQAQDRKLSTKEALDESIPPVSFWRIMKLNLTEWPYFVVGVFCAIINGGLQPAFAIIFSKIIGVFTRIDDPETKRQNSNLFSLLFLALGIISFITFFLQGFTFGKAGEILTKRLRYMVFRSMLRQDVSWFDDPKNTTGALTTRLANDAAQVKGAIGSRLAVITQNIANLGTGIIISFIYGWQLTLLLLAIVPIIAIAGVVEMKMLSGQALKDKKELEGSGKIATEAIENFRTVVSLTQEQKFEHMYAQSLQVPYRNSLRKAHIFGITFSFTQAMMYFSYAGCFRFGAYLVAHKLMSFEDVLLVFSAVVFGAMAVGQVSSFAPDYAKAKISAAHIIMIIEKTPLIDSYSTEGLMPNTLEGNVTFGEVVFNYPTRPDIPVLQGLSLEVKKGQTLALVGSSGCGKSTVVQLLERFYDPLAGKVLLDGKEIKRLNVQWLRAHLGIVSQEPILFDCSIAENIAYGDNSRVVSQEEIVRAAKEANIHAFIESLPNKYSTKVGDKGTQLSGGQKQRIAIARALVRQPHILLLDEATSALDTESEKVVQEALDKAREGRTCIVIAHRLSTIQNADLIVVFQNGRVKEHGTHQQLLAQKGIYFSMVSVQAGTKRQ

As to `Nc1nc2ccc(Cl)cc2c2nc(-c3ccco3)nn12` [CGS 15943, 5-amino-9-chloro-2-(furyl) 1,2,4-triazolo[1,5-c]quinazoline], the “inhibition of P-gp activity (in words)” value on P-gp [1] is given as “much lower effect on P-gp activity”.
`CNC(=O)[C@H]1O[C@@H](n2cnc3c(NCc4cccc(I)c4)nc(Cl)nc32)[C@H](O)[C@@H]1O` [CI-IB-MECA]: the colony formation increased entry with A375 melanoma cells (CI-IB-MECA 10 μM alone vs DMSO control) is given as “about 30%”; in the data set on A375 melanoma cells (CI-IB-MECA 10 μM combined with paclitaxel 0.75 ng/ml vs paclitaxel alone), 32%. Further, the colony formation is listed as 85 % of control in the data set with A375 melanoma cells (CI-IB-MECA 10 μM or MRE 3008F20 10 μM combined with paclitaxel 0.75 ng/ml) and 130 % of control in the data set on A375 melanoma cells (agent alone (CI-IB-MECA 10 μM; paclitaxel 0.75 ng/ml; MRE 3008F20 10 μM)).
Take `CCN(CC)c1ccc(NC(=O)Nc2nc3nn(C)cc3c3nc(-c4ccco4)nn23)cc1` [IL-10, N-1-(4-diethylamino-phenyl)-N′-5-[8-methyl-2-(2-furyl)-pyrazolo [4,3-e]1,2,4-triazolo[1,5-c]pyrimidine]-urea]: on P-gp [1], the “inhibition of P-gp activity (in words)” value is listed as “strong inhibitors of P-gp activity” and the “% of Rh123 negative cells” value is given as 0.4 ± 0.2%.
As to `CCCn1cc2c(nc(NC(=O)Nc3ccc(OC)cc3)n3nc(-c4ccco4)nc23)n1` [MRE3008F20, 5-[[(4-Methoxyphenyl)amino]carbonyl]amino-8-propyl-2-(2-furyl)-pyrazolo[4,3-e]1,2,4-triazolo[1,5-c]pyrimidine], at P-gp [1], the “inhibition of P-gp activity (in words)” value was “near total P-gp inhibition; also recorded: strong inhibitors of P-gp activity” and the “% of Rh123 negative cells” value is given as 0.5 ± 0.3%. Moreover, the “P-gp mediated Rh123 transport (in words)” value at P-gp [2] (MRE3008F20 10 μM) is reported as “completely blockade of P-gp mediated Rh123 transport”.
For the compound `Cc1ccc(NC(=O)Nc2nc3nn(C)cc3c3nc(-c4ccco4)nn23)cc1` [MRE 3046F20, 5-N-(4-methylphenyl-carbamoyl)amino-8-methyl-2 (2-furyl)-pyrazolo-[4,3e]-1,2,4-triazolo[1,5-c]pyrimidine], the “inhibition of P-gp activity (in words)” value on P-gp [1] is reported as “strong inhibitors of P-gp activity”.
Same read-out and setting: the same measure for `CCCn1cc2c(nc(NC(=O)Nc3ccccc3)n3nc(-c4ccco4)nc23)n1` [MRE 3055F20, 5-N-(4-phenylcarbamoyl)amino-8-propyl-2 (2furyl)-pyrazolo[4,3e]-1,2,4triazolo-[1,5c]pyrimidine]: “strong inhibitors of P-gp activity”.
Turning to `CCCCn1cc2c(nc(NC(=O)Nc3ccccc3)n3nc(-c4ccco4)nc23)n1` [MRE 3062F20, 5-N-(4-phenyl-carbamoyl)amino-8-butyl-2(2furyl)-pyrazolo-[4,3e]-1,2,4triazolo[1,5-c]pyrimidine], on P-gp [1], the “inhibition of P-gp activity (in words)” value is on record as “strong inhibitors of P-gp activity” and the “% of Rh123 negative cells” value was 1.0 ± 0.2%.
With `C[S+]([O-])c1ccc(-c2nc(-c3ccncc3)c(-c3ccc(F)cc3)[nH]2)cc1` (centres unmarked) [SB203580], in the data set with A375 cells, the “G2/M accumulation rate of inhibitor plus paclitaxel or vindesine respect to paclitaxel or vindesine alone (in words)” value is given as “did not alter”.
Consider `N#CC(=C(/N)Sc1ccccc1N)/C(C#N)=C(\N)Sc1ccccc1N` [U0126], for which the “G2/M accumulation rate of inhibitor plus paclitaxel or vindesine respect to paclitaxel or vindesine alone (in words)” value in the data set with A375 cells (A375, PD98059 20 μM, U0126 30 μM, SB203580 1 μM) is reported as “did not alter”. The “effect on MRE 3008F20 blockade of P-gp (in words)” value on P-gp [2] (U0126 30 μM for 30 minutes, then MRE3008F20 10 μM) is recorded as “failed to prevent”.
For the compound `Nc1nc(NCCc2ccc(O)cc2)nc2nc(-c3ccco3)nn12` [ZM 241385, 4-(2-[7-amino-2-(2-furyl)-[1,2,4]triazolo[2,3-a][1,3,5]triazin-5-ylamino]ethyl)phenol], the “inhibition of P-gp activity (in words)” value on P-gp [1] was “much lower effect on P-gp activity”.
`COc1cccc2c1C(=O)c1c(O)c3c(c(O)c1C2=O)C[C@@](O)(C(=O)CO)C[C@@H]3O[C@H]1C[C@H](N)[C@H](O)[C@H](C)O1` [doxorubicin]: the values for the IC50 in data set [3] (with IL-10 0.5 μg/ml), in data set [3] (with IL-11 0.5 μg/ml) and in data set [3] (with MRE3008F20 1 μg/ml) were 0.31 µg/mL (≈ 0.57 µM), 0.38 µg/mL (≈ 0.699 µM) and 0.28 µg/mL (≈ 0.515 µM), respectively. Moreover, the “HT29 more refractory than the A375 cell line” value in data set [3] is on record as “approximately 30 fold”.
Regarding `CCc1c2c(nc3ccc(OC(=O)N4CCC(N5CCCCC5)CC4)cc13)-c1cc3c(c(=O)n1C2)COC(=O)[C@]3(O)CC` [irinotecan HCL], the concentration for half-maximal inhibition (IC50) in data set [3] (with IL-10 0.5 μg/ml) amounted to 0.77 µg/mL; in data set [3] (with IL-11 0.5 μg/ml), 0.85 µg/mL; in data set [3] (with MRE3008F20 1 μg/ml) it was 0.53 µg/mL; in data set [4] (with IL-10 0.5 μg/ml), 0.67 µg/mL; in data set [4] (with IL-11 0.5 μg/ml), 0.061 µg/mL; in data set [4] (with MRE3008F20 1 μg/ml), 0.57 µg/mL.
Consider `O=C1c2c(O)ccc(O)c2C(=O)c2c(NCCNCCO)ccc(NCCNCCO)c21` [mitoxantrone], for which, in data set [3], the “HT29 more refractory than the A375 cell line” value was “approximately 30 fold”.
Turning to `CC[C@]1(O)C[C@@H]2CN(CCc3c([nH]c4ccccc34)[C@@](C(=O)OC)(c3cc4c(cc3OC)N(C)[C@H]3[C@@](O)(C(=O)OC)[C@H](OC(C)=O)[C@]5(CC)C=CCN6CC[C@]43[C@@H]65)C2)C1` [vinblastine], the IC50 was 0.0011 µg/mL (≈ 0.00136 µM) in data set [4] (with IL-10 0.5 μg/ml), 0.00094 µg/mL (≈ 0.00116 µM) in data set [4] (with IL-11 0.5 μg/ml) and 0.0013 µg/mL (≈ 0.0016 µM) in data set [4] (with MRE3008F20 1 μg/ml).

The record behind these values is patent US20050119289A1 (priority 2002, published 2005).
